Source: patent publication US10233184B2, “7-substituted sulfonimidoylpurinone compounds and derivatives for the treatment and prophylaxis of virus infection” (Hoffmann-La Roche Inc., priority 2016, dated 2019)
In brackets after ≈: the same amount, converted by molar mass. Like-named read-outs stand apart in the source and are kept apart here.

What was measured:
HBV = experiment: In vivo antiviral efficacy in AAV-HBV mouse model; parameters: species or system C57BL/6 mice; details: for reduction in HBV DNA / reduction in HBsAg: serum
Text: 4-6 week old male C57BL/6 mice, specific pathogen free, were purchased from Shanghai Laboratory Animal Center of Chinese Academy of Sciences (SLAC) and housed in an animal care facility in individually ventilated cages under controlled temperature and light conditions following the Institutional Animal Care guidelines. AAV-HBV virus was purchased from Beijing FivePlus Molecular Medicine Institute (Beijing, China). The recombinant virus carries 1.3 copies of the HBV genome packaged into AAV serotype 8 (AAV8) capsids. C57BL/6 mice were injected with 200 μL of the recombinant virus diluted in saline buffer through tail vein. On day 14, the mice were bled to measure HBV surface antigen (HBsAg) and HBV genomic DNA in the serum, and animals were then randomized into groups according to these HBV biomarkers.
Serum HBsAg and HBeAg were measured using CLIA kits (Autobio Diagnostics Co., Ltd., Zhengzhou, China) according to the manufacturer's instructions. The lower limit of detection for HBsAg was 0.05 IU/mL. Serum dilution of 500-fold was used to obtain values within the linear range of the standard curve.
Serum HBV DNA was extracted using a MagNA Pure 96 DNA and Viral NA Small Volume Kit (Roche) following the manufacturer's instructions. The DNA samples were analyzed by real-time quantitative PCR (qPCR) using a HBV-specific primer and probe set for specific amplification and detection of a 128 bp HBV genome region from the nucleotide 2969 to 3096. The sequences of the primers and probe are: […]
Anti-HBs in the serum was tested using Anti-HBs CLIA kits (Autobio Diagnostics Co., Ltd., Zhengzhou, China) and mouse anti-IgG conjugated with Biotin (0.5 mg/mL) from a Mabtech B Elispot kit. The anti-IgG Biotin was diluted in PBS with a final concentration of 1 μg/mL. 25 μL of mouse anti-IgG were mixed with serum samples in wells of the plate in the Anti-HBs CLIA kit for 1-hour incubation. Then wash the plate and add Streptavidin-HRP for 1-hour incubation at room temperature. After repeating the washing step, mix substrate A and B from the CLIA kit and add 50 μL of the mixture in each well. After 5-min incubation at room temperature, the plate was read on an Envision Plate Reader (PerkinElmer) to measure luminecence.
The mouse model with high level expression of both HBV DNA and HBsAg was generated by injecting C57BL/6 mice with a recombinant adeno-associated virus (AAV) carrying a replicable HBV genome (AAV-HBV). With long-lasting HBV viremia and fully competent immune system, the AAV-HBV mouse model was utilized to evaluate the antiviral efficacy of the TLR7 agonists following the study design as shown in Table 3.
Specifically, groups 2 and 3 were orally dosed with Example 43-A at 10 mg/kg every other day (QOD) and once weekly (QW), respectively, and the control group 1 received only Vehicle. At the dosing volume of 10 mL/kg, Example 43-A (1 mg/mL) was formulated as an inclusion complex with 2% Klucel LF, 0.5% TPGS, 0.09% Methylparabens, 0.01% Propylparabens in water. The animals were treated for a total of 42 days, and were submandibularly bled twice per week for serum collection throughout the study. The serum samples were subjected to analysis of HBV biomarkers.
The antiviral efficacy of Example 41-A was evaluated in the same AAV-HBV model following the study design in Table 4 with the same methods to measure HBV biomarkers as described in Example 51.
Specifically, groups 2, 3 and 4 were orally dosed with Example 41-A at 1, 3 and 10 mg/kg QOD respectively. Group 5 was treated with 10 mg/kg QW, while group 1 with only Vehicle. At the dosing volume of 10 mL/kg, Example 41-A (0.1, 0.3, and 1 mg/mL) was formulated as an inclusion complex with 2% Klucel LF, 0.5% TPGS, 0.09% Methylparabens, 0.01% Propylparabens in water. The animals were treated for a total of 42 days, and were submandibularly bled twice per week for serum collection throughout the study. The serum samples were subjected to analysis of HBV biomarkers. […]

LYSA solubility study = assay type: physicochemical; details: phosphate buffer, pH 6.5, aqueous buffer, thermodynamic from solid, 0.05M phosphate buffer pH 6.5, read-out: LYSA of Prodrugs
Procedure, shortened: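 Samples from 10 mM DMSO stock were dried, redissolved in 0.05M phosphate buffer pH 6.5, stirred 1 h, shaken 2 h, left overnight and filtered. Filtrate and 1/10 dilution quantified by HPLC-UV; solubility in μg/mL, reported as greater-than when >80% of the maximum sample amount was in solution.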

[1] = Portal vein study: oral PK in PVC/CAC dual cannulated rat; assay type: in vivo; details: prodrug 10 mg/kg oral, analyte prodrug
Method: Surgery was performed under pentobarbital/isoflurane anesthesia. Briefly, after disinfecting the abdominal area with betadine and 70% isopropyl alcohol, a small abdominal mid-line incision was made. The cecum was pulled out and mesenteric vein was identified and isolated for about 5 mm vessel. A loose ligature was placed proximally and distal end of the vein was ligated. Make a small incision (just enough to allow the insertion of the catheter) on isolated vein and insert the PU catheter towards liver for appropriate length. The catheter was secured in place by tying the loose ligature around the cannulated vessel. The cecum was replaced into abdominal cavity. A hole was made in the right abdominal wall to make the end of catheter pass freely. The catheter was secured by suture on the abdominal wall. The abdominal muscle incision was closed with suture. A small incision was made in the scapular area to serve as the exit site of the catheter. The catheter was subcutaneously tunneled and exteriorized through the scapular incision. A fixed suture was placed in the scapular region. The patency of the catheter was checked and then exteriorized from the subcutaneous space to the dorsal neck region. After gently wiping the area, the abdominal cavity was sutured. The left carotid artery was then cannulated by inserting a PESO catheter. Both the exteriorized catheters were tied firmly on the dorsal neck region and fixed. The animals was then allowed to recover in its cage and used for study at least 3 days after surgery. All catheters were flushed once daily with heparinized saline to maintain patency. Animals were fasted overnight (n=3) and administered vial oral gavage (10 mg/kg, 10 mL/kg). Blood samples (60 μL) were collected simultaneously from the portal and carotid artery catheters at 0.083, 0.25, 0.5, 1, 2, 4, 7, 24 h. All blood samples will be transferred into microcentrifuge tubes containing 2 μL of K2EDTA (0.5M) as anti-coagulant and placed on wet ice. Then blood samples will be processed for plasma by centrifugation at approximately 4° C., 3000 g within half an hour of collection. Plasma samples will be stored in polypropylene tubes, quick frozen over dry ice and kept at −70±10° C. until LC/MS/MS analysis. Pharmacokinetic parameters (mean±SD, n=3) of prodrugs and active forms in portal and carotid samples following oral administration of prodrugs (10 mg/kg) in portal vein cannulated rat were detected and analyzed.

[2] = AAV-HBV mice, 10 mg/kg PO QW, 42 days
[3] = AAV-HBV mice, 1, 3, 10 mg/kg PO QOD (all three doses)
[4] = AAV-HBV mice, 1, 3, 10 mg/kg PO QOD, 42 days
[5] = carotid artery plasma, read-out: AUC0-2 (nM · h), prodrug, Carotid sampling
[6] = carotid artery plasma, read-out: Cmax (nM), prodrug, Carotid sampling
[7] = carotid artery plasma, read-out: Tmax (h), prodrug, Carotid sampling
[8] = portal vein plasma, read-out: AUC0-2 (nM · h), prodrug, Portal sampling
[9] = portal vein plasma, read-out: Cmax (nM), prodrug, Portal sampling
[10] = portal vein plasma, read-out: Tmax (h), prodrug, Portal sampling
[11] = AAV-HBV mice, 1, 3, 10 mg/kg PO QOD, 42 days, all treated groups
[12] = AAV-HBV mice, 10 mg/kg PO QOD, 42 days

CCCN(C)C(=O)n1c(=O)n(Cc2ccc(Cl)cc2)c2nc([S@](=N)(=O)CC)nc(N)c21 [Example 41-A, 6-Amino-9-[(4-chlorophenyl)methyl]-2-[S(R)-ethylsulfonimidoyl]-N-methyl-8-oxo-N-propyl-purine-7-carboxamide]
levels of HBV DNA and HBsAg at the treatment end (HBV; [2]): undetectable levels
levels of HBV DNA and HBsAg at the end of the 42-day treatment (HBV; [3]): below or close to the LLOQ
anti-HBsAg antibody level (HBV; AAV-HBV mice, 1, 3, 10 mg/kg PO QOD and 10 mg/kg QW, post treatment, versus Vehicle): significantly higher levels of antibody against-HbsAg than Vehicle
effect on HBV DNA and HBsAg (HBV; [4]): dose-dependently reduced HBV DNA and HBsAg
solubility thermodynamic (LYSA solubility study): 260 µg/mL (≈ 558 µM)
AUC(0-t) [1, 5]: 0.114 µM·h
Cmax [1, 6]: 210 nM
Tmax [1, 7]: 0.19 h
AUC(0-t) [1, 8]: 2.19 µM·h
Cmax [1, 9]: 9700 nM
Tmax [1, 10]: 0.14 h

CCCN(C)C(=O)n1c(=O)n(Cc2ccc(Cl)cc2)c2nc([S@@](=N)(=O)CC)nc(N)c21 [Example 41-B, 6-Amino-9-[(4-chlorophenyl)methyl]-2-[S(S)-ethylsulfonimidoyl]-N-methyl-8-oxo-N-propyl-purine-7-carboxamide]
levels of HBV DNA and HBsAg at the end of the 42-day treatment (HBV; [3]): below the LLOQ
effect on HBV DNA and HBsAg (HBV; [4]): all effective to reduce HBV DNA and HBsAg
anti-HBsAg antibody level (HBV; [11]): high levels of anti-HBsAg antibody than the Vehicle group
solubility thermodynamic (LYSA solubility study): 250 µg/mL (≈ 537 µM)
AUC(0-t) [1, 5]: 0.0225 µM·h
Cmax [1, 6]: 29.6 nM
Tmax [1, 7]: 0.25 h
AUC(0-t) [1, 8]: 1.44 µM·h
Cmax [1, 9]: 7070 nM
Tmax [1, 10]: 0.19 h

CCN(C)C(=O)n1c(=O)n(Cc2ccc(Cl)cc2)c2nc([S@@](=N)(=O)CC)nc(N)c21 [Example 42-A, 6-Amino-9-[(4-chlorophenyl)methyl]-N-ethyl-2[S(S)-ethylsulfonimidoyl]-N-methyl-8-oxo-purine-7-carboxamide]
levels of HBV DNA and HBsAg at the end of the 42-day treatment (HBV; [3]): below or close to the LLOQ
effect on HBV DNA and HBsAg (HBV; [4]): all effective to reduce HBV DNA and HBsAg
anti-HBsAg antibody level (HBV; [11]): significantly higher levels of anti-HBsAg antibody
solubility thermodynamic (LYSA solubility study): 225 µg/mL (≈ 498 µM)
AUC(0-t) [1, 5]: 0.286 µM·h
Cmax [1, 6]: 286 nM
Tmax [1, 7]: 0.22 h
AUC(0-t) [1, 8]: 3.46 µM·h
Cmax [1, 9]: 8920 nM
Tmax [1, 10]: 0.19 h

CCCN(C)C(=O)n1c(=O)n(Cc2ccc(C)cc2)c2nc([S@](=N)(=O)CC)nc(N)c21 [Example 43-A, 6-Amino-2-[S(R)-ethylsulfonimidoyl]-N-methyl-8-oxo-N-propyl-9-(p-tolylmethyl)purine-7-carboxamide]
levels of HBV DNA and HBsAg at the end of the 42-day treatment (HBV; AAV-HBV mice, 10 mg/kg PO QOD): undetectable and below the lower limit of quantification (LLOQ)
reduction in HBV DNA (HBV; [12]): > 3 log
reduction in HBsAg (HBV; [12]): > 2.8 log
reduction in HBV DNA (HBV; [2]): > 2 log
reduction in HBsAg (HBV; [2]): > 2.8 log
anti-HBsAg antibody level (HBV; AAV-HBV mice, 10 mg/kg PO, regardless of QOD and QW, 42 days): induced a considerable level of anti-HBsAg antibody
solubility thermodynamic (LYSA solubility study): 203 µg/mL (≈ 456 µM)
AUC(0-t) [1, 5]: 0.124 µM·h
Cmax [1, 6]: 191 nM
Tmax [1, 7]: 0.22 h
AUC(0-t) [1, 8]: 2.07 µM·h
Cmax [1, 9]: 4110 nM
Tmax [1, 10]: 0.28 h
